In patent US5840718A, “22-epimeric-1,25-dihydroxy-16,22,23-triene-cholecalciferol” (Hoffmann-La Roche Inc., priority 1997, dated 1998):
Like-named read-outs stand apart in the source and are kept apart here.

Key:
[1] = Calcium tolerance test in mice; format: in vivo; conditions: daily subcutaneous, 4 consecutive days, dose giving zero weight gain during 5 day treatment period
Text: Calcium tolerance test in mice
Profound changes in calcium homeostasis strongly affect the weight development of mice.
Mice (25-30 g body weight) received daily subcutaneous administrations of the compound for 4 consecutive days. Body weight was registered just before and at the end of a […] treatment period. The "highest tolerated dose" (HTD) is the dose which results in zero weight gain during this treatment period.

[2] = test system: γ-Interferon Release in Human T-cells; assay: Inhibition of γ-Interferon Release in Human T-cells (ELISA); format: cell-based; conditions: PHA-stimulated human lymphocytes, IFN-γ by ELISA, days 3 and 4, read-out: IC50, concentration leading to 50% of control values (IFN-γ)
Method: Inhibition of γ-Interferon Release in Human T-cells
(§1) Mononuclear cells were isolated from venous blood of healthy donors by centrifugation of buffy coat leucocytes atop Ficoll-Paque. […] 100 μl of this cell suspension were seeded into flat-bottom microtiter wells and stimulated with 1 μg/ml of the T-cell specific mitogen phytohemagglutinine (PHA). Immediately after seeding, the test compounds listed below in Table IV were added to yield final concentrations of between 1×10^-11 M-1×10^-6 M. All tests were run in the quadruplicates.
On days 3 and 4, medium was removed from the wells and the content of IFN-γ was analyzed by ELISA. Values are expressed as percent of controls (samples without test compound).

Sebaceous cells = assay: Inhibition of Sebaceous Cell Proliferation; format: cell-based, human; conditions: read-out: ED50, amount of compound necessary to inhibit the proliferation of the sebaceous cells by 50%
Method: Inhibition of Sebaceous Cell Proliferation
Sebaceous cells were isolated from adult human sebaceous glands, derived from facial skin removed during cosmetic surgery. This method is described in an article by Doran et al. in J. Invest. Dermatol. 96:341-348 (1991).
The cells were cultured in Iscove's medium containing 10% fetal calf-serum and 4 μg/ml dexamethasone on a layer of growth-arrested 3T3 mouse fibroblasts.
Cells were plated in medium without the test compound and then given the compound in fresh medium 24-48 hours after the initial plating. The cultures were given fresh medium, containing the test compound, every 48 hours. On the day of harvesting, the cultures were rinsed with 0.03% ethylenediamine tetraacetic acid (EDTA) in phosphate buffered saline (PBS), to remove only the 3T3 fibroblasts. The remaining sebocyte colonies were incubated in 0.05% trypsin/0/03% EDTA to create a single cell suspension of sebocytes. The cells were suspended, mixed vigorously to prepare a single cell suspension, and counted in a hemocytometer.
All compounds were handled in the following manner. Stock solutions were made up as 10-^2 M solutions in degassed 100% ethanol and stored at -20° C. in the dark. Solutions were never used after storage of more than a month. During experimental use the solutions, which had been aliquoted, were thawed once and used by diluting directly into complete medium to the appropriate concentration.
The results are summarized in Table III below as the amount of compound necessary to inhibit the proliferation of the sebaceous cells by 50% (ED50) in μM as compared to a control, vehicle treated only, culture.

Human T-cell = assay: Inhibition of Human T-cell Proliferation (3H-thymidine); format: cell-based; conditions: PHA-stimulated human lymphocytes, 3H-thimidine after 3 and 4 days, read-out: IC50, concentration leading to 50% of control values (T-cell proliferation)
Method: Inhibition of Human T-cell Proliferation
as §1, with “[…]” for “μl”, “[…]” for “μg/ml”, “PHA.” for “the T-cell specific mitogen phytohemagglutinine (PHA).”, “V” for “IV”
After 3 and 4 days, ^3 H-thymidine (5 Ci/mmol) was added to wells at a concentration of […]. Cells were pulse-labeled for the last 6 hours of the growth period. Cells were then harvested on to a 96 well filter plate using a cell harvester. After drying at 40° C. under vacuum for 20-30 minutes, 20 μl of scintillor were added and the radioactivity bound to the filters was counted. Values are expressed as percent controls (samples without test compounds).

HL-60 cells = assay: Induction of HL-60 Cell Differentiation (NBT reduction); format: cell-based; conditions: 3 days, relative to maximal differentiation with 100-1000 nM calcitriol, mean of 3 wells, 4320 min, read-out: ED50, concentration leading to 50% of maximal differentiation
Method: Induction of HL-60 Cell Differentiation
The induction of differentiation of HL-60 cells was assayed by measuring their oxidative burst potential via the reduction of nitrobluetetrazolium (NBT).
HL-60 cells (30,000 cells in 90 μl of supplemented RPMI medium) were seeded into flat-bottomed microliter wells. Immediately after seeding, 10 μl of test compounds listed below in Table II diluted in supplemented RPMI medium were added to the wells to yield final concentrations of between 10^-11 and 10^-6 M (starting from stock solutions of 10^-2 M in ethanol, stored at -20° C. and protected from light). After 3 days, medium was removed from the wells with a multichannel pipette and replaced with 100 μl of NBT solution (1 mg/ml in phosphate buffered saline with 200 nM phorbol myristate acetate). Following an additional hour incubation at 37° C. the NBT solution was removed and 100 μl of 10% sodium dodecyl sulfate in 0.01N HCl was added. The amount of the reduced NBT was quantified photometrically at 540 nm using an automated plate reader. The mean of 3 wells was calculated. […] Values were expressed as percent of maximal differentiation achieved with 100-1000 nM calcitriol in the same experiment.

HaCaT cell line = assay: Inhibition of Keratinocyte Proliferation (3H-thymidine uptake, HaCaT cells); format: cell-based; conditions: Homo sapiens, 3H-thymidine incorporation, 6 days, read-out: IC50, concentration leading to 50% of control values

SMILES	HTD, highest tolerated dose [1]	IC50 [2]	IC50 (Sebaceous cells; adult human facial sebaceous cells, vs vehicle treated control, listed as 1α,25-Dihydroxy-16,22R,23-triene-cholecalciferol)	IC50 (Human T-cell)	EC50 (HL-60 cells)	IC50 (HaCaT cell line)	IC50 (Sebaceous cells; adult human facial sebaceous cells, vs vehicle treated control, listed as 1α,25-Dihydroxy-16,22S,23-triene-cholecalciferol)	IC50 ([2]; T-cell)	IC50 (Sebaceous cells; Homo sapiens)	IC50 (Human T-cell; T-cell)
C=C1/C(=C\C=C2/CCC[C@]3(C)C([C@H](C)C=C=CC(C)(C)O)=CC[C@@H]23)C[C@@H](O)C[C@@H]1O [1,25-Dihydroxy-16,22R,23-triene-cholecalciferol]	0.0025 mg/kg	0.05 nM	1 nM	0.55 nM	0.22 nM	–	–	–	–	–
C=C1/C(=C\C=C2/CCC[C@]3(C)C([C@H](C)C=C=CC(C)(C)O)=CC[C@@H]23)C[C@@H](O)C[C@@H]1O [1,25-Dihydroxy-16,22S,23-triene-cholecalciferol] [listing 1 of 2 here]	–	–	–	–	–	40 nM	–	–	–	–
C=C1/C(=C\C=C2/CCC[C@]3(C)C([C@H](C)C=C=CC(C)(C)O)=CC[C@@H]23)C[C@@H](O)C[C@@H]1O [1,25-Dihydroxy-16,22S,23-triene-cholecalciferol] [listing 2 of 2 here]	0.05 mg/kg	3 nM	–	6 nM	4.8 nM	–	10 nM	–	–	–
C=C1/C(=C\C=C2/CCC[C@]3(C)[C@@H]([C@H](C)CCCC(C)(C)O)CC[C@@H]23)C[C@@H](O)C[C@@H]1O [1,25-Dihydroxy-cholecalciferol, reference compound]	–	–	–	–	–	55 nM	–	0.8 nM	50 nM	10 nM
